Laboratory results reported in US10618874B2, “Compounds, cosmetic composition and pharmaceutical composition comprising the same” (INCOSPHARM CORPORATION, priority 2018, dated 2020).

Columns and labels:
mushroom tyrosinase = assay: tyrosinase activity inhibition assay; type: biochemical; details: 10, 100, 1000 and 10000 ppm; 37° C., 1 hour; FIG. 2
Method: As a specific experimental method, mushroom tyrosinase was diluted with a 0.1 M sodium phosphate buffer at 2 unit/ul and dissolved in water at 0.03 wt % of tyrosine. Each experiment group listed in the following Table 1 was also diluted in the 0.1 M sodium phosphate buffer at 10, 100, 1000, and 10000 ppm and mixed as listed in Table 1. Reaction was performed at 37° C. for 1 hour and absorbance was measured, respectively (wavelength: 490 nm, Epoch, BioTek). Based on the results, a tyrosinase inhibition ratio relative to a control group was calculated. [table]

[1] = test system: melanin cells (human primary melanocyte, HEMn-DP); assay: MTT assay in melanocytes; type: cell-based; details: 5, 10 and 50 μM, 4 days, FIG. 3
Method: (§1) In order to confirm a treatment concentration of Compound and Compound 2 obtained in the above Examples having no cytotoxicity thereby, an MTT assay was performed.
(§2) As a specific experimental method, in order to confirm cytotoxicity depending on the treatment concentration of Compound 1 and Compound 2, apoptosis analysis was performed in melanin cells (human primary melanocyte, HEMn-DP, cat # C2025C, Gibco) and keratinocytes (human primary keratinocyte, HEKn, cat # C0015C, Gibco). Cells were deposited to the number of 1×10^4 cells/well in a 96 well plate and cultured in an incubator for 24 hours under the condition of 37° C. and 5% CO2.
(§3) Each of Compound 1 and Compound 2 obtained in the above Examples was dissolved in distilled water (DW) at a concentration of 100 mM to form a concentrated solution, which was diluted with a medium, and treatment was performed at concentrations of 5, 10, and 50 μM. After 4 days, the medium of the plate was removed and the plate was treated with 100 μl of an MTT reagent (Sigma, 0.5 mg/ml). After 4 hours, the reagent was removed, dimethyl sulfoxide (DMSO) was added thereto, and absorbance was measured (wavelength: 570 nm, Epoch, BioTek). Here, cell viability was calculated as a percentage to absorbance of a control group (blank) which was not treated with the compound.

[2] = test system: keratinocytes (human primary keratinocyte, HEKn); assay: MTT assay in keratinocytes; type: cell-based; details: 5, 10 and 50 μM, 4 days, FIG. 4
Method: as §1, §2, §3

[3] = test system: human-derived melanin cells (HEMn-DP); MITF, Tyrosinase mRNA; assay: melanosome maturation-related genes (qPCR) and melanin content in melanin cells; type: cell-based; details: 1 ml of 20 μM added to 1 ml medium, 48 hours, FIGS. 5 to 7
Method: In order to analyze how Compound 1 and Compound 2 obtained in the above Examples affect melanosome maturation, an amount of melanosome maturation-related mRNA after treated with Compound 1 and Compound 2 was analyzed with qPCR and a melanin content was measured with absorbance.
As a specific experimental method, human-derived melanin cells (HEMn-DP, cat # C2025C, Gibco) were constantly deposited to the number of 1×10^5 in a 6 well plate for culturing and cultured in an incubator for 24 hours under the condition of 37° C. and 5% CO2 in M254 (cat # M-254-500, Gibco). Each of Compound 1 and Compound 2 was dissolved in DW at a concentration of 100 mM to form a concentration solution, which was diluted in a medium at a concentration of 20 μM, 1 ml of each diluted solution was added to each well containing 1 ml of the medium first for treatment and cultured for 48 hours, and RNeasy mini kit (cat #74106, QIAGEN) was used to extract RNA from melanin cells. […] Then, the experiment was performed identically, the medium was removed after completion of culturing, melanin cells were separated from the plate using Trypsin-EDTA (cat # LS-015-09, WELGENE), transferred to a 1.5 ml tube, and spun down, a photograph of the pellet was taken, and the absorbance of a solution of the pellet dissolved in 1N NaOH was measured (wavelength: 400 nm, Epoch, BioTek).

[4] = test system: LC3 (light chain 3; autophagy marker) in keratinocytes (HEKn); assay: western blot on LC3 protein in keratinocytes (autophagy activation); type: cell-based, human; details: FIG. 8
Method: (§4) For intracellular autophagy analysis by treatment with Compound 1 obtained in the above Example, a western blot was performed on a LC3 (light chain 3; autophagy marker) protein. In addition, for analysis of change in endocytosis-related genes by treatment with Compound 2 obtained in the above Example, qPCR was performed on PAR2, AAK1 (AP2 Associated Kinase 1).
As a specific experimental method, keratinocytes (HEKn, cat # C0015C, Gibco) was treated with Compound 1 and dissolved using a cell lysis buffer containing a proteolysis inhibitor. The entire dissolved solution was fractionized using a centrifuge and only the solution containing proteins was extracted. The extracted proteins were quantified by a bicinchoninic acid (BCA) method. 20 μg of proteins were separated by 10% SDS-polyacrylamide gel electrophoresis and transferred to a nitrocellulose film. The film to which the proteins were transferred was blocked by a tris-buffered saline/0.05% Tween-20 (TBS-T) solution containing 5% non-fat milk for decreasing a non-specific bonding at room temperature for 1 hour, and then a primary antibody was reacted under the condition of 4° C. overnight and a secondary antibody was reacted at room temperature for 1 hour. For visualization, an enhanced chemiluminescence system was used.

[5] = test system: human-derived keratinocytes (HEKn); assay: melanin pigmentation in keratinocytes after melanin treatment; type: cell-based; details: 48 hours treatment, then melanin 2 hours; absorbance 400 nm; FIG. 9
Method: In order to analyze how Compound 1 and Compound 2 obtained in the above Examples affect melanin pigmentation, a degree of pigmentation inhibition by melanin treatment was analyzed.
As a specific experimental method, human-derived keratinocytes (HEKn, cat # C0015C, Gibco) were constantly deposited to the number of 1×10^5 in a 6 well plate for culturing and cultured in an incubator for 24 hours under the condition of […] and 5% CO2 in EpiLife (cat # MEPI500CA, Gibco). Each of Compound 1 or Compound 2 obtained in the above Examples was dissolved at a concentration of 100 mM to form a concentration solution, which was diluted in a medium at a concentration of 20 μM, 1 ml of each diluted solution was added to each well containing 1 ml of the medium first for treatment and cultured for 48 hours, and 10 mg/ml of melanin was added by 2 μl at a time and culturing was further performed for 2 hours. The medium was removed after completion of culturing, cells were separated from the plate using Trypsin-EDTA (cat # LS-015-09, WELGENE), transferred to a 1.5 ml tube and spun down, a photograph of the pellet was taken, and the absorbance of a solution of the pellet dissolved in 1N NaOH was measured (wavelength: 400 nm, Epoch, BioTek).

[6] = test system: keratinocytes (HEKn) with ATG5 knocked down; assay: melanin pigmentation inhibition and autophagy proteins in ATG5 knocked-down keratinocytes; type: cell-based, human; details: 10 μM, FIG. 10; for expression activity of LC3-II and ATG5: western blot
Text: In order to analyze whether melanin deposition inhibition activity on keratinocytes by treatment with Compound 1 and Compound 2 depends on autophagy activation, ATG5 which is the protein required for autophagy activation was knocked down and treated with melanin to analyze a pigmentation inhibition activity change.
As a specific experimental method, ATG5 siRNA was mixed according to the method of transfection reagent (RNAiMAX, cat #13778-075, Thermo) and deposited in keratinocytes (HEKn, cat # C0015C, Gibco). After 8 hours, Compound 1 and Compound 2 were diluted with Epilife (cat # MEPI500CA, Gibco) without a supplement and an antibiotic to a final concentration of 10 μM for treatment, and cells which were further cultured for 64 hours were dissolved using a cell lysis buffer containing a proteolysis inhibitor. The entire dissolved solution was fractionized using a centrifuge and only the solution containing proteins was extracted. The extracted proteins were quantified by a bicinchoninic acid (BCA) method. 20 μg of proteins were separated by 10% SDS-polyacrylamide gel electrophoresis and transferred to a nitrocellulose film. The film to which the proteins were transferred was blocked by a tris-buffered saline/0.05% Tween-20 (TBS-T) solution containing 5% BSA (bovine serum albumin, Gendepot, Cat # A0100-010) for decreasing a non-specific bonding at room temperature for 1 hour, and then a primary antibody was reacted under the condition of 4° C. overnight and a secondary antibody was reacted at room temperature for 1 hour. For visualization, an enhance chemiluminescence system was used. Then, in order to analyze melanin pigmentation inhibition activity, transfection and treatment with the compounds were performed identically, and then 10 mg/ml of melanin was added by 2 μl at a time and culturing was further performed for 2 hours. The culture medium was removed after completion of culturing, cells were separated from the plate using Trypsin-EDTA (cat # LS-015-09, WELGENE), transferred to a 1.5 ml tube and spun down, a photograph of the pellet was taken, and the absorbance of a solution of the pellet dissolved in 1N NaOH was measured (wavelength: 400 nm, Epoch, BioTek).

keratinocytes (HEKn) = assay: melanosome degradation: confocal and transmission electron microscopy of keratinocytes given melanosomes; type: cell-based, human; details: 10 μM; confocal microscope; FIG. 11
Method: In order to confirm whether melanosome and autuphagosome are co-localized by treatment with Compound 1 and Compound 2 obtained in the above Examples, analysis was performed with an electron microscope and a confocal microscope.
As a specific experimental method, Lysis Buffer (Tris 20 mM, NaCl 150 mM, EDTA 1 mM, sucrose 250 mM in DW) was added to melanin cells (HEMn-DP, cat # C2025C, Gibco) containing human-derived melanin at high concentration, freezing and thawing were repeated twice to break a cell membrane, and centrifugation was performed at 1000×g for 5 minutes, thereby obtaining a supernatant. Cushion Buffer (Tris 20 mM, NaCl 150 mM, EDTA 1 mM, sucrose 1.5M in DW) was placed in an ultracentrifuge tube, the same amount of supernatant was added thereto, and then centrifugation was performed under the conditions of 25,000 rpm, […], and 4° C., thereby obtaining melanosomes. The concentration of melanosomes was measured using synthesized melanin (cat # M8631, sigma) as a standard. Keratinocytes (HEKn, cat # C0015C, Gibco) was deposited in a 6 well by 1×10^5 cells/well at a time and cultured for one day. Treatment with 10 μM of Compound 1 and compound 2 each was performed, culturing was performed for one day, separated melanosomes (5 μg/well) was added, and culturing was further performed for 2 days. […]

[7] = test system: PAR-2 gene in keratinocytes (HEKn); assay: qPCR of endocytosis-related gene PAR2 in keratinocytes; type: cell-based, human; details: FIG. 8
Method: as §4
As a specific experimental method, from keratinocytes (HEKn, cat # C0015C, Gibco) treated with Compound 2, RNA was extracted using a RNeasy mini kit (cat #74106, QIAGEN), cDNA was synthesized using a cDNA synthesis kit (cat # FSQ-201, TOYOBO), and then a PAR2(F: CTCTCCTGCAGTGGCACCAT; R: GATGTGCCATCAACCTTACCAA) primer and POWER SYBR MASTER MIX (cat #4367659, Thermo) were mixed at a recommended ratio with the synthesized cDNA, and qPCR was performed with QuantStudio 3 equipment (cat # A28131, Thermo).

Q: With CC(=O)N1C[C@H](O)C[C@H]1C(=O)NCCCC[C@H](NC(=O)[C@H](CCCCN(CC(=O)O)CC(=O)O)N(CC(=O)O)CC(=O)O)C(=O)O [Compound 1] as the compound, how does the tyrosinase activity inhibition (mushroom tyrosinase) read?
A: did not inhibit tyrosinase activity

Q: What about the “cytotoxicity (MTT, cell viability)” value [1] of the same compound?
A: almost no cytotoxicity

Q: And the “cytotoxicity (MTT, cell viability)” value [2]?
A: almost no cytotoxicity

Q: What about the “influence on melanosome maturation activity (tyrosinase and MITF mRNA, melanin content)” value [3] of the same compound?
A: almost no influence

Q: And the “production of LC3-II (matured autophagosome)” value [4]?
A: increased

Q: And the “melanin pigmentation on keratinocytes” value [5]?
A: effectively inhibited

Q: What about the “melanin amount in keratinocytes” value [6] of the same compound?
A: not decreased

Q: What about the “expression activity of LC3-II and ATG5” value [6] of the same compound?
A: inhibited

Q: What about the “co-localization of increased autophagosomes with melanosomes” value (keratinocytes (HEKn)) of the same compound?
A: co-localized with melanosomes

Q: For O=C(O)CN(CCCC[C@@H](C(=O)N1C[C@H](O)C[C@H]1C(=O)O)N(CC(=O)O)CC(=O)O)CC(=O)O [Compound 2], which tyrosinase activity inhibition (mushroom tyrosinase) is on record?
A: did not inhibit tyrosinase activity

Q: What about the “cytotoxicity (MTT, cell viability)” value [1] of the same compound?
A: almost no cytotoxicity

Q: And the “cytotoxicity (MTT, cell viability)” value [2]?
A: almost no cytotoxicity

Q: And the “influence on melanosome maturation activity (tyrosinase and MITF mRNA, melanin content)” value [3]?
A: almost no influence

Q: And the “expression of the PAR-2 gene” value [7]?
A: decreased

Q: And the “melanin pigmentation on keratinocytes” value [5]?
A: effectively inhibited

Q: And the “melanin amount in keratinocytes” value [6]?
A: not decreased

Q: And the “expression activity of LC3-II and ATG5” value [6]?
A: inhibited

Q: What about the “co-localization of increased autophagosomes with melanosomes” value (keratinocytes (HEKn)) of the same compound?
A: co-localized with melanosomes
